# Entries after “also recorded” stand apart in the source; their conditions may differ.
# Assays:
# [1] = molecular target: T1, AF4-AF9 protein complexes (Homo sapiens, UniProt P42568); test: Co-localization of GFP-AF4R1 3A- and RFP-AF9 in transfected NIH-3T3 cells; assay type: cell-based, mouse; conditions: overnight
# T1 construct: expressed in transfected cells; host or cells: NIH-3T3
# T1 sequence (P42568 1-568): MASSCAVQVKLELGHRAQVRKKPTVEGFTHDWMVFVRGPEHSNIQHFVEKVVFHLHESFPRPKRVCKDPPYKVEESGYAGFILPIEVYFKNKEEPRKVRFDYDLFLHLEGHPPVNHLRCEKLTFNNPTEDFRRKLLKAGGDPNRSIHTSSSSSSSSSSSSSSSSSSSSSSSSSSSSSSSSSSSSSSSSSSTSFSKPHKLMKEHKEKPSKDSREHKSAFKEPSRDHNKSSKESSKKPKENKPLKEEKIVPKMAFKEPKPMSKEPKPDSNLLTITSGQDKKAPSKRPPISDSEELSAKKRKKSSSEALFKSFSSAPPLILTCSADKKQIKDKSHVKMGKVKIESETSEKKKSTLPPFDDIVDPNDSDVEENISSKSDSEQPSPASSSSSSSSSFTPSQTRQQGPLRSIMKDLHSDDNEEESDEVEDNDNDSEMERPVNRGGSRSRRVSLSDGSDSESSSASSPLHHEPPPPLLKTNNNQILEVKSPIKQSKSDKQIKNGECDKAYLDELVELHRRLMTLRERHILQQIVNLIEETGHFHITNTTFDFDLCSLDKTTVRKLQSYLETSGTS
# Procedure: To determine whether PFWT disrupts AF4-AF9 protein complexes in living cells, the properties of a fragment of mouse AF4 protein encompassing amino acids 623–811 (SEQ ID NO: 115) was used. The entire murine AF4 sequence can be obtained from the NCBI database at Accession Number AAD08668.
# To test whether disruption of the AF4-AF9 interaction by PFWT results in delocalization of AF4R1 3A- from the nucleus to the cytoplasm even when co-expressed with exogenous AF9, the following assay was performed.
# An enhanced green fluorescent protein (GFP) expression vector encoding mouse AF4 amino acids 623–811 SEQ ID NO: 115 (pEGFP-AF4R1 3A-), and a red fluorescent protein (RFP)-tagged AF9 expression vector were produced as described (Erfurth, F., et al., 2004, cited above; Srinivasan 2003, cited above; Hemenway, C. S., et al., 2001, cited above). NIH-3T3 cells were grown in chamber slides containing DMEM supplemented with 1-glutamine, 1% non-essential amino acids, 1% sodium pyruvate, 10% calf serum, and antibiotics. Cells were then transiently transfected with the expression vectors expressing fluorescent protein-tagged AF4 and AF9 using Lipofectamine™ 2000 reagent (Invitrogen). After 24 h the cells were treated with the peptides PFWT or PFmut at a concentration of 25 or 50 μg/ml and incubated overnight.
# Cells on chamber slides were washed in PBS, fixed with 3% paraformaldehyde for 15 minutes, treated with 300 nM 4′,6-Diamidino-2-phenyindole (DAPI) nuclear counterstain for 5 minutes, and mounted with coverslips using Prolong™ media (Molecular Probes). Slides were visualized by deconvolution fluorescence microscopy with a Leica DMRXA upright microscope (Meyer Instruments) equipped with a Sensicam™ QE CCD digital camera (Cooke Corporation) and filter sets for both EGFP (exciter HQ480/20, dichroic Q495LP, and emitter HQ510/20m) and RFP (exciter 560/55x, dichroic Q595LP, and emitter HQ645/75m). Images were captured, deconvolved, and analyzed with Slidebook™ software (Intelligent Imaging Innovations).
# Image analysis entailed a pixel correlation algorithm between the EGFP and RFP fluorescence channels within each image through creation of a digital binary overlay (thresholding) over arbitrary regions in both channels. This statistical measurement determines the degree in which two pixels in an image correspond to one another. If the trend in number of pixels in both EGFP and RFP channels overlap or co-localize entirely (i.e., perfect pixel set correlation), they have an assigned correlation measurement of 1.0.
# B1 leukemia cells = test: CaspACE FITC-VAD-FMK caspase assay; assay type: cell-based; conditions: 50 μg peptide, 24 h / overnight
# Procedure: To examine an additional marker of apoptosis, apoptosis assays utilizing the FITC-labeled VAD-FMK caspase substrate, CaspACE FITC-VAD-FMK (Promega) were performed according to the manufacturer's instructions. Caspase activation in individual cells was monitored by binding of the caspase substrate, followed by flow cytometry analysis. Briefly, B1 leukemia cells were suspended in RPMI 1640+10% FCS at a concentration of 5×10^5 cells/ml and treated with 50 μg PFWT, PFmut or an equal volume of DMSO. Following an overnight incubation at 37° C., the fluorescent caspase substrate CaspACE FITC-VAD-FMK marker was added to a final concentration of 10 μM and incubated for 20 minutes at 37° C. under light protective conditions. The cells were pelletted, washed, and resuspended in PBS. Cells were then analyzed by flow cytometry using a Becton Dickinson FACS Vantage flow cytometer. A 488 nm wavelength argon-ion laser beam was used for excitation, and the emission was measured using a 530 nm filter.
# B1 cells = test: Cell cycle analysis (PI DNA staining, flow cytometry); assay type: cell-based; conditions: for proportion of cells in G1 / proportion of cells in G2 / proportion of cells in S: G1:S:G2 ratio
# Procedure: Leukemia cells were subjected to cell cycle analyses using a Cellular DNA flow cytrometric analysis kit (Roche) according to manufacturers' protocols to determine if PFWT might also induce cell cycle arrest. B1 cells were treated with peptides as outlined above and fixed. For DNA staining, cells were harvested and washed and resuspended with PBS at a concentration of 10^6 cells/ml. 1 unit/ml of RNase and 50 μg/mI of PI was added to this suspension and incubated at 37° C. for 1 hr and analyzed by flow cytometry using Coulter benchtop flow cytometer.
# AF4-AF9 interaction = molecular target: T2, AF4-AF9 interaction (Homo sapiens, UniProt P42568); test: Enzyme-linked protein binding assay, GST-AF4(749-775) and biotinylated AF9
# T2 construct: made in house; host or cells: GST-AF4 from E. coli; AF9 by coupled in vitro transcription/translation (Promega)
# T2 sequence (P42568 211-568): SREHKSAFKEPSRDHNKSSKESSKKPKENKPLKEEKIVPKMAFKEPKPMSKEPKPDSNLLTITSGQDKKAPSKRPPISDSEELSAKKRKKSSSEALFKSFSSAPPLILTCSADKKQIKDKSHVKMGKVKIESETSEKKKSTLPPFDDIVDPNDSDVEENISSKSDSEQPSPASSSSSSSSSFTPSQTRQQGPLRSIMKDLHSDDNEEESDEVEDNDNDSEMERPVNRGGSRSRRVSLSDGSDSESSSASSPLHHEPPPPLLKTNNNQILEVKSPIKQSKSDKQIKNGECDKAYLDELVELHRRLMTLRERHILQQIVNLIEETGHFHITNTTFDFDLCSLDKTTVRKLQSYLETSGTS
SMILES,localization of GFP-AF4R1 3A- relative to RFP-AF9 ([1]; 25 μg/ml),pixel correlation between EGFP and RFP channels ([1]; 25 μg/ml),localization of GFP-AF4R1 3A- relative to RFP-AF9 ([1]; 50 μg/ml),pixel correlation between EGFP and RFP channels ([1]; 50 μg/ml),caspase activation (fluorescence intensity) (B1 leukemia cells),sub-G1 population (of all events) (B1 cells),proportion of cells in G1 (B1 cells),proportion of cells in G2 (B1 cells),proportion of cells in S (B1 cells),"AF4-AF9 interaction (AF4-AF9 interaction; 10 μg/ml, FIG. 2B)",concentration dependence of AF4-AF9 interaction (AF4-AF9 interaction; FIG. 2B),lowest concentration showing activity (AF4-AF9 interaction; FIG. 2B),concentration at which activity plateaus (AF4-AF9 interaction)
CC[C@H](C)[C@H](NC(=O)[C@H](CCCCN)NC(=O)[C@@H](NC(=O)[C@H](Cc1c[nH]c2ccccc12)NC(=O)[C@H](CC(C)C)NC(=O)[C@H](CCCCN)NC(=O)[C@H](CCCCN)NC(=O)[C@H](Cc1c[nH]c2ccccc12)NC(=O)[C@H](CCCCN)NC(=O)[C@H](CCSC)NC(=O)[C@H](CCCNC(=N)N)NC(=O)[C@H](CCCNC(=N)N)NC(=O)[C@H](CC(N)=O)NC(=O)[C@H](CCC(N)=O)NC(=O)[C@H](Cc1ccccc1)NC(=O)[C@H](Cc1c[nH]c2ccccc12)NC(=O)[C@H](CCCCN)NC(=O)[C@@H](NC(=O)[C@H](CCC(N)=O)NC(=O)[C@@H](N)CCCNC(=N)N)[C@@H](C)CC)C(C)C)C(=O)N[C@@H](CC(=O)O)C(=O)N[C@@H](CC(C)C)C(=O)N[C@@H](CC(=O)O)C(=O)N[C@@H](CC(C)C)C(=O)N[C@@H](CC(C)C)C(=O)N[C@@H](CO)C(=O)N[C@@H](CCCNC(=N)N)C(=O)N[C@H](C(=O)N1CCC[C@H]1C(=O)O)C(C)C [PFWT],partially delocalizes or is displaced from RFP-AF9,negative correlation value,little or no GFP-AF4R1 3A- remains in the nucleus,negatively correlated,caspases are activated,51%,47,8,45,abolished,dose dependent reduction; also recorded: displaces AF9 from AF4 in a concentration-dependant fashion,10 ng/mL,–
CC[C@H](C)[C@H](NC(=O)[C@H](CCC(N)=O)NC(=O)[C@@H](N)CCCNC(=N)N)C(=O)N[C@@H](CCCCN)C(=O)N[C@@H](Cc1c[nH]c2ccccc12)C(=O)N[C@@H](Cc1ccccc1)C(=O)N[C@@H](CCC(N)=O)C(=O)N[C@@H](CC(N)=O)C(=O)N[C@@H](CCCNC(=N)N)C(=O)N[C@@H](CCCNC(=N)N)C(=O)N[C@@H](CCSC)C(=O)N[C@@H](CCCCN)C(=O)N[C@@H](Cc1c[nH]c2ccccc12)C(=O)N[C@@H](CCCCN)C(=O)N[C@@H](CCCCN)C(=O)N[C@@H](CC(C)C)C(=O)N[C@@H](Cc1c[nH]c2ccccc12)C(=O)N[C@@H](CCC(=O)O)C(=O)N[C@@H](CCCCN)C(=O)N[C@@H](CO)C(=O)N[C@@H](CC(=O)O)C(=O)N[C@@H](CC(C)C)C(=O)N[C@@H](CC(=O)O)C(=O)N[C@@H](CC(C)C)C(=O)N[C@@H](CC(C)C)C(=O)N[C@@H](CO)C(=O)N[C@@H](CCCNC(=N)N)C(=O)N[C@H](C(=O)N1CCC[C@H]1C(=O)O)C(C)C [PFmut],no observable effect,significantly positively correlated,displaces some GFP-AF4R1 3A- from RFP-AF9 into the cytoplasm,strongly positively correlated,little caspase activation can be detected,–,52,8,40,–,–,–,40 µg/mL
